The values below come from PMC6630668, “Comprehensive Analysis of Secondary Metabolites in Usnea longissima (Lichenized Ascomycetes, Parmeliaceae) Using UPLC-ESI-QTOF-MS/MS and Pro-Apoptotic Activity of Barbatic Acid” (Molecules, 2019).

Test [1] relates to MCF-7 (Human breast cancer). Nature of the test: MTT cytotoxicity assay, MCF-7. As to conditions: MCF7, 50% cell proliferation inhibitory concentration after 48 h of compound treatment, compounds. The format is cell-based. As to the method: (§1) MTT assay was performed as described earlier. Cells were plated at a density of 1 × 10^4 cells/well in 100 µL Dulbecco’s Modified Eagle Medium (DMEM)/Minimum Essential Media (MEM) medium, supplemented with 10% FBS in 96-well plates for 24 h. After incubation, cells were treated with standard doxorubicin and test compounds for 48 h. After 48 h of treatment, 10 µL MTT (3-(4,5-dimethylthiazol-2 yl)-2,5-diphenyl tetrazolium bromide) (5 mg/mL) were added to each well and the plates were further incubated for 4 h. After 4 h, 100 µL DMSO was added to each well and absorbance at 570 nm wavelength was recorded spectrophotometrically.
For orientation: Tetrazolium dyes change colour on reduction, which living cells bring about.

The subject of the next test is A549 (Human lung cancer). Nature of the test: MTT cytotoxicity assay, A549. The format is cell-based. As to conditions: 50% cell proliferation inhibitory concentration after 48 h of compound treatment, compounds. As to the method:
as §1

Test [2] deals with DU-145 (Human prostate cancer). As to the kind of experiment: MTT cytotoxicity assay, DU-145. The format is cell-based. As to conditions: 50% cell proliferation inhibitory concentration after 48 h of compound treatment, compounds. The method, then: as §1
For test [3], the system named is HEK-293 (Normal cell line, Human embryonic kidney). As to the kind of experiment: MTT cytotoxicity assay, HEK-293. As to conditions: compounds. The format is cell-based. The method, then:
as §1

Test [4] deals with HeLa (Human cervical cancer). Nature of the test: MTT cytotoxicity assay, HeLa. As to conditions: 50% cell proliferation inhibitory concentration after 48 h of compound treatment, compounds. The format is cell-based. The method, then: as §1
The subject of test [5] is Poly (ADP-ribose) polymerase (PARP). Nature of the test: Immunoblot assay for PARP cleavage. The format is cell-based, human. As to conditions: A549, 21 at 1 and 2 µM for 48 h; doxorubicin 1 µM. An excerpt: (§2) Following treatments, cells were washed twice with PBS and lysed in 1× SDS sample buffer. Proteins were separated on 10% SDS-polyacrylamide gels and transferred onto nitrocellulose membranes. Membranes were washed twice with tween Tris-buffered saline before blocking nonspecific binding with 5% nonfat dry milk (Blotto, Santa Cruz Biotechnology, Dallas, TX, USA) or 3% bovine serum albumin. Anti-Poly ADP-ribose Polymerase (PARP) (11835238001-Roche) antibody, that detects total and cleaved PARP was used at 1:1000 dilutions, and membranes were incubated for 2 h at room temperature. Anti-Cyclin D1 (C7464, Sigma Aldrich) and anti-CDK4 (SAB140559, Sigma Aldrich) were detected similar to PARP protein. Membranes were washed three times, and detection was performed using horseradish peroxidase-conjugated secondary antibody as described previously.
A general note: A western blot detects proteins with antibodies after separation by electrophoresis.

The next test has as its system CDK4 and Cyclin D1. As to the kind of experiment: Immunoblot assay for CDK4 and Cyclin D1. As to conditions: A549, 21 at 1 and 2 µM for 48 h; doxorubicin 1 µM. The format is cell-based, human.
Description: as §2

Test [6] relates to A549 cells. Nature of the test: Annexin V-FITC assay for apoptosis. The format is cell-based, human. As to conditions: A549, 24 h; for total apoptosis: control 1.12%. The method, then: A549 cells were seeded in six-well plates and incubated for 24 h. After incubation, cells were treated with doxorubicin at 2 µM and compound 21 at 1 and 2 µM concentrations and further incubated for 24 h. After 24 h treatment, cells were harvested by trypsinization. After harvesting, cells were washed with PBS at 5000 rpm. After washing, cells were stained with Annexin-V and propidium iodide using Annexin-V apoptosis detection kit (Sigma-Aldrich). Annexin V-FITC assay was performed as described earlier.

The next test relates to caspase-3. As to the kind of experiment: Caspase-3 assay (fluorimetric, Ac-DEVD-AMC). The format is cell-based, human. As to conditions: A549, 2 µM. As to the method:
Following treatment, cell lysates were washed twice with phosphate-buffered saline and dissolved in lysis buffer (50 mM HEPES (pH 7.4) containing 5 mM CHAPS and 5 mM DTT) for 15 min on ice. Later, cells were centrifuged at 14,000× g for 15 min, under cold conditions, and collected the clear supernatant. The supernatant was added to assay buffer (20 mM HEPES (pH 7.4), 2 mM EDTA, 0.1% CHAPS, and 5 mM DTT) containing caspase 3 substrate (Ac-DEVD-AMC, 40 μM) in a final volume of 100 μL as described earlier. The incubation was performed for 1 h at 37 °C with readings recorded at 5-min intervals. Fluorescence released by AMC was measured at 360-nm and 460-nm excitation and emission wavelengths, respectively. Values were normalized to protein concentration and expressed as fold change of activity relative to DMSO control.

Test [7] has as its system A549 cells. As to the kind of experiment: Cell cycle analysis by flow cytometry. The format is cell-based, human. As to conditions: A549, 24 h. As to the method:
Flow cytometric analysis (FACS) was performed to evaluate the cell cycle arrest. A549 cells were seeded, incubated for 24 h and then treated with doxorubicin at 2 µM and compound 21 at 1 and 2 µM concentrations for 24 h. After that, cells were harvested and washed with phosphate buffered saline (PBS) followed by fixation in ice cold 70% ethanol. After fixation cells were incubated with RNase A (0.1 mg/mL) at 37 °C for 30 min and stained with propidium iodide (Sigma Aldrich, St. Louis, MO, USA) (50 μg/mL) for 30 min on ice in dark. Cell cycle analysis was performed by flow cytometry (Becton Dickinson FACS Caliber instrument).
A general note: A flow cytometer gives signals particle by particle.

Test [8] has as its system A549 cells. Nature of the test: Hoechst staining for apoptosis. The format is cell-based, human. As to conditions: A549, 1 and 2 µM, 48 h. The method, then: A549 cells were seeded on cover slips and incubated for 24 h. After incubation, cells were treated with doxorubicin at 2 µM and compound 21 at 1 and 2 µM concentrations for 48 h. After 48 h treatment, Hoechst staining was performed using H33258 dye. Florescence images were captured by Olympus microscope using 10X lens.

For another test, the system named is human cancer cell lines. As to the kind of experiment: MTT cytotoxicity assay, panel of cancer cell lines. The format is cell-based. As to conditions: HeLa, MCF-7 and DU-145, range over the cell lines, read-out: IC50 on additional cancer cell lines. As to the method:
as §1

[9] abbreviates: Homo sapiens, 2 µM, read-out: live (viable) cells (LL).
Where [10] appears, read: Homo sapiens, HEK293, 48 h, after 48 h of compound treatment.

Broadly, the IC50 is the concentration that inhibits the measured activity by half.

Where only a bound is given, the exact number is not on record here.

For `CC(=O)C1=C(O)C=C2Oc3c(C(C)=O)c(O)c(C)c(O)c3C2(C)C1=O` (single isomer, unassigned; (+)) [compound 22, (+)-usnic acid], the IC50 in test [1] was found to be 19.2 ± 2.05 µM; in the test with A549 (Human lung cancer), 13.8 ± 1.11 µM; in [2], 24.2 ± 0.99 µM; in [3] (Homo sapiens, HEK293, after 48 h of compound treatment) it was 125 ± 1.98 µM; in test [4] it was 18.9 ± 2.06 µM.

Turning to `COc1cccc2c1C(=O)c1c(O)c3c(c(O)c1C2=O)C[C@@](O)(C(=O)CO)C[C@@H]3O[C@H]1C[C@H](N)[C@H](O)[C@H](C)O1` [Doxorubicin, doxorubicin, reference compound], the IC50 was 1.62 ± 0.36 µM in test [1], 1.95 ± 0.97 µM with A549 (Human lung cancer), 1.51 ± 0.84 µM in test [2] and 1.55 ± 1.32 µM in [4]. Further, the “PARP cleavage (in words)” value in test [5] is recorded as “robust cleavage of PARP protein”. Moreover, in the test with CDK4 and Cyclin D1, the “CDK4 and Cyclin D1 protein levels (in words)” value is recorded as “accumulated”. The “early apoptotic cells (LR)” value in the test with A549 cells [6] (2 µM) is given as 22.3%. For the same compound, the “late apoptotic cells (UR)” value in the test on A549 cells [6] (2 µM) came to 9.79%. For the same compound, in the test on A549 cells [6] (2 µM), the “necrotic cells (UL)” value is given as 0.12%. For the same compound, the viability at 2 µM with A549 cells [6] (setting [9]) stood at 67.8%.

Turning to `C[C@@H]1C(=O)OC(CCCCCCCCCCCCC[C@@H](C)O)C1C(=O)O` (stereo partly drawn) [compound 19, 18R-hydroxy-dihydroalloprotolichesterinic acid], the IC50 turned out to be 20 ± 0.74 µM in test [1]; 20.2 ± 1.99 µM in the test with A549 (Human lung cancer); 27 ± 2.92 µM in test [2]; 55.9 ± 1.55 µM in test [3] (setting [10]); 22.7 ± 0.97 µM in [4].

On to `CC1=C(C(=O)O)[C@H](CCCCCCCCCCCCCC(C)O)OC1=O` (stereo partly drawn) [compound 20, neuropogolic acid], for which the half-inhibitory concentration (IC50) came out at 22.3 ± 4.05 µM in test [1]; 19.1 ± 3.86 µM with A549 (Human lung cancer); 26.1 ± 1.09 µM in test [2]; 113 ± 3.82 µM in [3] (setting [10]); 23.6 ± 0.74 µM in test [4].

Take `COc1cc(C)c(C(=O)Oc2cc(C)c(C(=O)O)c(O)c2C)c(O)c1C` [compound 21, barbatic acid]: the IC50 was 3.16 ± 0.88 µM in [1]; 1.78 ± 0.62 µM in the test with A549 (Human lung cancer); 9.03 ± 2.11 µM in test [2]; above 100 µM in test [3] (setting [10]); 125 ± 2.65 µM in [3] (after 48 h of compound treatment); 3.02 ± 0.11 µM in test [4]. For the same compound, the concentration for half-maximal inhibition (IC50) in the test with human cancer cell lines lay in the range of 3.02 to 9.03 µM. In addition, the “caspase-3 activity (in words)” value in the test on caspase-3 is reported as “increased maximally”. Also, the entries for the “cell accumulation in G0/G1 phase” value in the test on A549 cells [7] (1 µM) and in the test with A549 cells [7] (2 µM) were 70.9% and 74.4%, respectively. In addition, the “PARP cleavage (in words)” value in test [5] was “robust cleavage of PARP protein”. In addition, the “CDK4 and Cyclin D1 protein levels (in words)” value in the test on CDK4 and Cyclin D1 was “accumulated”. In addition, in the test on A549 cells [8], the “Hoechst staining, nuclear morphology (in words)” value is “chromatin condensation and fragmented nuclei”. Besides, the “early apoptotic cells (LR)” value in the test with A549 cells [6] (1 µM) came to 7.68%; with A549 cells [6] (2 µM), 9.05%. In addition, the entries for the “late apoptotic cells (UR)” value in the test on A549 cells [6] (1 µM) and with A549 cells [6] (2 µM) were 0.10% and 0.24%, respectively. Besides, the “necrotic cells (UL)” value in the test with A549 cells [6] (1 µM) is 0.00%; in the test on A549 cells [6] (2 µM), 0.07%. Besides, the total apoptosis entry in the test on A549 cells [6] (1 µM) is listed as “about 7.78%”; in the test with A549 cells [6] (2 µM) it was around 9.29%. In addition, in the test with A549 cells [6] (Homo sapiens, 1 µM, read-out: live (viable) cells (LL)), the viability at 1 µM was determined as 92.2%. Further, the viability at 2 µM in the test with A549 cells [6] (setting [9]) came out at 90.6%.
